Earlier results as cited in patent publication US11612669B2, “Disinfection method and apparatus” (University of Washington, priority 2020, dated 2023).

System: microbes, viruses, and bacteria in blood plasma
Conditions: one micromolar solution, white light at 45,000 lux for more than one hour

For CN(C)c1ccc2nc3ccc(=[N+](C)C)cc-3sc2c1 [methylene blue], the “inactivation of microbes, viruses, and bacteria” value is listed as “can inactivate microbes, viruses, and bacteria”.
